The target in assay [1] is T1, NR1/NR2B ionotropic receptors encoded by the human GRIN1/GRIN2B genes, expressed in HEK293 cells (Homo sapiens, UniProt Q05586+Q13224). Put plainly: Syncropatch automated patch clamp on NR1/NR2B receptors in HEK293 cells, antagonist mode (co-applied with 2 μM glutamate and 50 μM glycine). The following applies: for NR1/NR2B PCA antagonist HillSlope: co-applied with 2 μM glutamate and 50 μM glycine; for inhibits glutamate and glycine activation of NR1/NR2B receptors in vitro: PCA and SSC measurements, conclusion in words. In kind it is cell-based. As to the method:
(§1) The following patch clamp study investigates these effects on NR1/NR2B ionotropic receptors encoded by the human GRIN1/GRIN2B genes, expressed in HEK293 cells. Compounds were evaluated for functional effects on these ion channel receptors.
(§2) The assay was carried out using an HTS electrophysiology-based approach with the Syncropatch 384pe automated patch clamp system (Nanion), while using HEK293 cells that have been transfected with human GRIN1/GRIN2B genes to express NR1/NR2B ionotropic receptors
(§3) HEK293 cells were transfected with the appropriate ion channel or receptor cDNA(s) encoding NR1 and NR2B. Stable transfectants were selected using the G418 and Zeocin-resistance genes incorporated into the expression plasmid. Selection pressure was maintained with G418 and Zeocin in the culture medium. Cells were cultured in Dulbecco's Modified Eagle Medium/Nutrient Mixture F-12 (D-MEM/F-12) supplemented with 10% fetal bovine serum, 100 U/ml penicillin G sodium, 100 ug/mL streptomycin sulfate, 100 ug/mL Zeocin, 5 ug/mL blasticidin and 500 ug/mL G418.
(§4) Before testing, cells in culture dishes were washed twice with DPBS solution. Immediately before testing, the cells were washed in HB-PS containing 10 mM CaCl2 to improve sealing.
(§5) Compounds were evaluated in 8-point concentration-response format (4 replicate wells/concentration). The compound formulations were loaded in e.g. a 384-well compound plate and placed in the Syncropatch plate well.
(§6) The agonist positive control (L-glutamate) was applied at eight (8) concentrations (0.03-100 μM; n=4, where n=the number of replicates) together with 50 μM glycine.
(§7) 2× concentration of test compounds and antagonist control was pre-applied 2 minutes before application of L-glutamate/glycine mixed with 1× concentration of test compound. Glutamate and glycine was applied to naive cells (n=4, where n=the number of replicate wells/concentration) via a multi-channel pipettor.
(§8) • a) Intracellular solution (mM): 50 mM CsCl, 90 mM CsF, 2 mM MgCl2, 5 mM EGTA, 10 mM HEPES. Adjust to pH 7.2 with CsOH. This solution was prepared in batches and stored refrigerated.
(§9) • a) Extracellular buffer was loaded into the multi holes plate wells (40 μL per well).
(§10) Activation was calculated in two ways based on the following measurements: • 1. peak current amplitudes, and • 2. current amplitude 4-5 seconds after agonist addition.
(§11) Data acquisition was performed via the […] and data was analyzed using Microsoft Excel™ (Microsoft™ Corp., Redmond, WA). Concentration-response data was filled to a Hill equation of the following form: […]
(§12) where Base is the response in the absence of test article (vehicle treatment), Max is the maximum response at high concentrations, xhalf is the EC50, or IC50, the concentration of test compound producing either half-maximal activation or inhibition, and rate is the Hill coefficient. Nonlinear least squares fits were made assuming a simple binding model. If appropriate, fits were weighted by the standard deviation. No assumptions about the fit parameters were made; the fit parameters were determined by algorithm. Raw reduced data was analyzed using Microsoft Excel Office 365 ProPlus (Microsoft™ Corp., Redmond, WA) and XLfit (Excel addon, Copyright© IDBS 2016).
Antagonist activity of test articles was examined after stimulation of receptors with 2 μM glutamate and 50 μM glycine in the presence of increasing concentrations of test articles. Two measurements were performed, first was a peak current amplitude and second was a steady state current between 4th and 6th seconds following agonist application.
as §1
HEK293 cells were transfected with the appropriate ion channel or receptor cDNA(s) encoding NR1 and NR2B.

Assay [2] deals with NR1C and NR2B receptors over NR1C+NR2A receptors (Homo sapiens, UniProt Q05586+Q13224). To be noted: cited from earlier work.
The subject of assay [3] is cortical damage in a model of permanent focal ischemia. The following applies: cited from earlier work.
For assay [4], the target named is T1, NR1/NR2B ionotropic receptors encoded by the human GRIN1/GRIN2B genes, expressed in HEK293 cells. Put plainly: Syncropatch automated patch clamp on NR1/NR2B receptors in HEK293 cells, agonist mode. The assay is classed as cell-based. The following applies: for EC50 / NR1/NR2B PCA agonist EMAX: plus 50 μM glycine; for NR1/NR2B PCA agonist EMAX: relative to current produced by 100 μM glutamate (EMAX set as 100%). The method, then: as §1, §2, §3, §4, §5, §6, §7, §8, §9, §10, §11, §12, §1
HEK293 cells were transfected with the appropriate ion channel or receptor cDNA(s) encoding NR1 and NR2B. Stable transfectants were selected using the G418 and Zeocin-resistance genes incorporated into the expression plasmid. Selection pressure was maintained with G418 and Zeocin in the culture medium.
(In patch-clamp work, channel activity is measured electrically.)

[5] abbreviates: steady state current amplitude (SSC) table.

Structures can show the parent of a compound that is named as a salt. Where two headings read alike, the source gives them in different places.

T1 sequence (Q13224 27-1484, other chains not shown): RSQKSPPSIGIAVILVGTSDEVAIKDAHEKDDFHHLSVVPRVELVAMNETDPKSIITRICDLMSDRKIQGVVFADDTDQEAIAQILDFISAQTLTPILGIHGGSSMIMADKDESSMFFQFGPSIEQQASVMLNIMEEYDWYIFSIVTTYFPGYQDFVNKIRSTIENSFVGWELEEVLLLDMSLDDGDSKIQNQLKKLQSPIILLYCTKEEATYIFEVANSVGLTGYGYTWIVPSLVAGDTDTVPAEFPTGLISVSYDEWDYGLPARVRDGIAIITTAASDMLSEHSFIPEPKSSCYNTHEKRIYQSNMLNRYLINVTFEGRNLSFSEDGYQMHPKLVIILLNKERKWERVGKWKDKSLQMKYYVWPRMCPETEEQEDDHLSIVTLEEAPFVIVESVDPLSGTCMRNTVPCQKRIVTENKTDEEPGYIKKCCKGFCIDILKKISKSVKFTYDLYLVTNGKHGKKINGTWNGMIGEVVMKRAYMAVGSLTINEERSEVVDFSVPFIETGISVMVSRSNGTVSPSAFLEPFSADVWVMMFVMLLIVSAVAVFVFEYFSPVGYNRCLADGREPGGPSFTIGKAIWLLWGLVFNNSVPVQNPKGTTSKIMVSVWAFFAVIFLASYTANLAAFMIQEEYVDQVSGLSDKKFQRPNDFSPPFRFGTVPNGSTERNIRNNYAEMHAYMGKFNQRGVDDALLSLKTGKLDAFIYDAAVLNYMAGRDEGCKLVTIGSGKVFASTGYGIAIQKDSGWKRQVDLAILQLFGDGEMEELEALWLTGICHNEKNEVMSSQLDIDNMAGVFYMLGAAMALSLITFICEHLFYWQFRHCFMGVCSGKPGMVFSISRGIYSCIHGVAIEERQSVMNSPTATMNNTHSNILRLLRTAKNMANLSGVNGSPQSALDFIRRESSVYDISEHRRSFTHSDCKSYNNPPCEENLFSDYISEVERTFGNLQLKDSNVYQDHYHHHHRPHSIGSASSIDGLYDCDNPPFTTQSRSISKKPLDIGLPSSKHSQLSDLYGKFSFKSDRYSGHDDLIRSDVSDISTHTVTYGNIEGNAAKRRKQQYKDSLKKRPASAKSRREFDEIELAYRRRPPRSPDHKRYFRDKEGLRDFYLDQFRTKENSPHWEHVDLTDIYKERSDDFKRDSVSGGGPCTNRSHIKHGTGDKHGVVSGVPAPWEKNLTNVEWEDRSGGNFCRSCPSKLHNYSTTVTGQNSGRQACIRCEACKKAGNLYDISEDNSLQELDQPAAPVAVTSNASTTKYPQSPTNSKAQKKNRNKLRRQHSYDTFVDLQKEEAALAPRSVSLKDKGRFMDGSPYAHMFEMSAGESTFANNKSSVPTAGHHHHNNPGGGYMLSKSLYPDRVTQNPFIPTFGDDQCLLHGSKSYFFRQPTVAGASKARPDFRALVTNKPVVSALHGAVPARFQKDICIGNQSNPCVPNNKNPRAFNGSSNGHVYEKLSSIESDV
Chain of NR1C and NR2B receptors over NR1C+NR2A receptors (Q13224 27-1484, other chains not shown): as above

As to `CC(C(O)c1ccc(O)cc1)N1CCC(Cc2ccccc2)CC1` (centres unmarked) [Ifenprodil fumarate], the “NR1/NR2B PCA antagonist HillSlope” value was determined as 0.79 in assay [1] (peak current amplitude (PCA), listed as fumarate) and 0.61 in assay [1] (steady state current amplitude (SSC) table, listed as fumarate).
For `C[C@@H]([C@H](O)c1ccc(O)cc1)N1CCC(Cc2ccccc2)CC1` [Ifenprodil oleate], the “inhibits glutamate and glycine activation of NR1/NR2B receptors in vitro” value in assay [1] is “comparable to ifenprodil tartrate”. The “NR1/NR2B PCA antagonist HillSlope” value stood at 0.79 in assay [1] (peak current amplitude (PCA)) and 0.86 in assay [1] (setting [5]).
On to `CC(C(O)c1ccc(O)cc1)N1CCC(Cc2ccccc2)CC1` (centres unmarked) [Ifenprodil pamoate], for which the “inhibits glutamate and glycine activation of NR1/NR2B receptors in vitro” value in assay [1] is “comparable to ifenprodil tartrate”. Besides, the “NR1/NR2B PCA antagonist HillSlope” value in assay [1] (peak current amplitude (PCA), listed as pamoate) is on record as 1.59; in assay [1] (steady state current amplitude (SSC) table, listed as pamoate), 0.77.
Take `Cc1ccc(CC2(O)CCN(CCOc3ccc(O)cc3)CC2)cc1` [Ro 63-1908]: in assay [2], the “selectivity for the NR1C and NR2B receptors over NR1C+NR2A receptors” value is given as 20,000 fold. The “neuroprotective effect against cortical damage” value in assay [3] was “dose-related neuroprotective effect”.
For `CC12CC3CC(C)(C1)CC(N)(C3)C2` [Memantine, memantine chloride, reference compound], the “NR1/NR2B PCA antagonist HillSlope” value is given as 1.12 in assay [1] (peak current amplitude (PCA)) and 1.08 in assay [1] (setting [5]).
In the case of `N[C@@H](CCC(=O)O)C(=O)[O-].O.[Na+]` [Glutamate, L-Glutamic acid monosodium salt monohydrate], in assay [4] (peak current amplitude (PCA)), the “NR1/NR2B PCA agonist HillSlope” value is −0.86, the EC50 was determined as 3030 nM and the “NR1/NR2B PCA agonist EMAX” value was 100.00%. Further, in assay [4] (setting [5]), the “NR1/NR2B PCA agonist HillSlope” value was −0.95 and the “NR1/NR2B PCA agonist EMAX” value was 100.00%. Moreover, the EC50 in assay [4] (steady state current amplitude (SSC) table, read-out: NR1/NR2B PCA agonist EC50) turned out to be 820 nM.
Regarding `CC(C(O)c1ccc(O)cc1)N1CCC(Cc2ccccc2)CC1.O=C(O)c1ccccc1` (centres unmarked) [Ifenprodil benzoate], the “inhibits glutamate and glycine activation of NR1/NR2B receptors in vitro” value in assay [1] is on record as “comparable to ifenprodil tartrate”. The “NR1/NR2B PCA antagonist HillSlope” value in assay [1] (peak current amplitude (PCA)) came out at 1.39; in assay [1] (setting [5]), 1.25.
Take `CC(C(O)c1ccc(O)cc1)N1CCC(Cc2ccccc2)CC1` (centres unmarked) [Ifenprodil nicotinate]: the “NR1/NR2B PCA antagonist HillSlope” value in assay [1] (peak current amplitude (PCA), listed as nicotinate) came out at 0.71; in assay [1] (steady state current amplitude (SSC) table, listed as nicotinate), 0.71.

These data come from patent publication US20250009730A1 (priority 2021, published 2025).
